Results: patent publication US9463188B2, “Osteopontin production inhibitor containing dictyopyrone derivative or dihydrodictyopyrone derivative as active ingredient” (TOHOKU UNIVERSITY, priority 2013, dated 2016)

Tested on: OPN promoter in A549/OPNluc cells
Experiment: Influence of mevalonic acid on suppression of luciferase activity under control of OPN promoter
Type: cell-based, human
Protocol: In order to determine whether the OPN production inhibitory effect of a dictyopyrone derivative or a dihydrodictyopyrone derivative contained as an active ingredient in the OPN production inhibitor according to the present invention is based on the same mechanism of action as a well-known statin-based drug for treatment of hypercholesteremia, simvastatin or the compound 3 was added to a culture liquid containing A549/OPNluc cells to determine its effect on gene expression under control of OPN promoter and to observe whether or not the effect was maintained even in the presence of mevalonic acid. […]
The solution in each well was mixed with a vortex mixer, and then the 96-well plate was incubated in a CO2 incubator (at 37° C. and 5% CO2) for 48±4 hours. […] After 30 min, 90 min, and 120 min, absorbance values (450 nm) were measured using a microplate reader (Bio-Rad; Benchmark or Thermo Scientific; Varioskan Flash).
The absorbance values were input into an Excel file, and the absorbance values of all the samples of each test group were divided by the average absorbance value of Control to determine the ratio of the absorbance value of each sample to the absorbance value of Control (Ratio to Control). Absorbance value of each sample÷absorbance value of Control=Ratio to Control […]

Structure (SMILES): CCCCCCCCCCCC(=O)[C@H]1C(=O)O[C@@H](C)C[C@@H]1C [Chemical formula 3]
- luciferase activity under control of OPN promoter after addition of MVA (compound 3 25 μM + MVA (100 μM or 1 mM)): not recovered
- luciferase activity under control of OPN promoter (compound 3 25 μM, no MVA, corrected by WST Ratio to Control): suppression of luciferase activity
